Measurements taken from patent US8765940B2 (priority 2009, dated 2014).
pIC50, pKi: −log10 of the molar value. Read-outs that look alike come from different tables or passages of the source.

Tests used:
Class I PI 3-kinases = details: cited from earlier work
neutrophil migration = details: cited from earlier work
superoxide release = details: cited from earlier work
p110δ = p110δ (Homo sapiens (Human), UniProt O00329); details: cited from earlier work
protein kinases = details: cited from earlier work
[1] = test system: ovalbumin-induced airway inflammation; details: cited from earlier work
[2] = test system: mouse model of rheumatoid arthritis; details: in vivo; cited from earlier work
[3] = test system: model of systemic lupus erythematosis; details: in vivo; cited from earlier work
PI3Kδ = PI3Kδ (Homo sapiens (Human), UniProt O00329); format: biochemical; details: PI3Kδ Alphascreen assay
Chain of PI3Kδ (O00329 whole entry): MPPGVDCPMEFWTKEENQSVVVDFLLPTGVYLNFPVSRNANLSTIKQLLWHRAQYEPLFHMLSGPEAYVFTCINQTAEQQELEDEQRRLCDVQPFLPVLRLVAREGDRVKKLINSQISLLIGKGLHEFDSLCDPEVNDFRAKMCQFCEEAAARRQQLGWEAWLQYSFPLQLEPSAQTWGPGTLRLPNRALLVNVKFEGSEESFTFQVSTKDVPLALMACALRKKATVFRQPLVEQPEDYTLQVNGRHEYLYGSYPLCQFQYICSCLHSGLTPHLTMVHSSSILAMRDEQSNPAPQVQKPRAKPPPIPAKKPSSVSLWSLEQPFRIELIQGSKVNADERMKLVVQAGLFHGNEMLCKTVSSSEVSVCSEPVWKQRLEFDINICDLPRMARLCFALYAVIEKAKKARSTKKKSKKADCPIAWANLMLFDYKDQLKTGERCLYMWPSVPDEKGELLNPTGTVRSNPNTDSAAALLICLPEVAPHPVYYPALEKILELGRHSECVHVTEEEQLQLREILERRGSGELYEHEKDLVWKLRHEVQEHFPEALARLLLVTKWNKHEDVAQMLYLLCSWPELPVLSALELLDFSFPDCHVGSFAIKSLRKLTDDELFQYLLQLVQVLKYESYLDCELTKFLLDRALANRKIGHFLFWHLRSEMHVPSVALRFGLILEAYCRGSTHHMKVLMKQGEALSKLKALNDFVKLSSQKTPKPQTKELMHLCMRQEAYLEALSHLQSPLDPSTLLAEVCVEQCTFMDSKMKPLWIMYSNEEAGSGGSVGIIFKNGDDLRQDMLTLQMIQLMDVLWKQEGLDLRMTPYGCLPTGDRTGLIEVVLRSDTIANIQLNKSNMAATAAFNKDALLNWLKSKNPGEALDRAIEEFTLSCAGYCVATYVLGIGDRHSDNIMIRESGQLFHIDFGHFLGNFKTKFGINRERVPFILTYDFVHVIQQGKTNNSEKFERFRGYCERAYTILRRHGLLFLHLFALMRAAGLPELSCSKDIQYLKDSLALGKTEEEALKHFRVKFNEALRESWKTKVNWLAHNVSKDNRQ
Chain of PI3Kδ (P27986 whole entry partner): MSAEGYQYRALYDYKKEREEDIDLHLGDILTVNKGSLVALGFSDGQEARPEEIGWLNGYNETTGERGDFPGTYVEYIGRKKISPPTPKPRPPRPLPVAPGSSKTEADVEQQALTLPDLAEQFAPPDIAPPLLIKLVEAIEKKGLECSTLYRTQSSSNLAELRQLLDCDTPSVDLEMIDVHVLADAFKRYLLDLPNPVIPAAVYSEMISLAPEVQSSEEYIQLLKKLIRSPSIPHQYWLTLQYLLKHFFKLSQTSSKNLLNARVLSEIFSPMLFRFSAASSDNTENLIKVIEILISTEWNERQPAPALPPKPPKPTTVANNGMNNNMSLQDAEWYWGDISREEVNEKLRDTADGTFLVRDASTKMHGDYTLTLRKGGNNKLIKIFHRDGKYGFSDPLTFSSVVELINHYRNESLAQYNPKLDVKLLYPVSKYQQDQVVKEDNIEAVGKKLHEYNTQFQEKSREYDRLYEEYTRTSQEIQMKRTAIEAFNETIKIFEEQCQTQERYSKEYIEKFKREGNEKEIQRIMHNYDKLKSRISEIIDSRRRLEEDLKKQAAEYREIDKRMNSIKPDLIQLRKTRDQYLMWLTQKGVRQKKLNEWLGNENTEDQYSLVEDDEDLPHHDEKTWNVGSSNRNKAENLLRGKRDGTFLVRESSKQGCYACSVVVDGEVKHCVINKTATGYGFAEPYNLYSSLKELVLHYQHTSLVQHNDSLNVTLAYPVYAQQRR
Description: A PI3K Alphascreen® assay (PerkinElmer, Waltham, Mass.) was used to measure the activity of a panel of four phosphoinositide 3-kinases: PI3Kα, PI3Kβ, PI3Kγ, and PI3Kδ. Enzyme reaction buffer was prepared using sterile water (Baxter, Deerfield, Ill.) and 50 mM Tris HCl pH 7, 14 mM MgCl2, 2 mM sodium cholate, and 100 mM NaCl. 2 mM DTT was added fresh the day of the experiment. The Alphascreen buffer was made using sterile water and 10 mM Tris HCl pH 7.5, 150 mM NaCl, 0.10% Tween 20, and 30 mM EDTA. 1 mM DTT was added fresh the day of the experiment. Compound source plates used for this assay were 384-well Greiner clear polypropylene plates containing test compounds at 5 mM and diluted 1:2 over 22 concentrations. Columns 23 and 24 contained only DMSO as these wells comprised the positive and negative controls, respectively. Source plates were replicated by transferring 0.5 uL per well into 384-well Optiplates (PerkinElmer, Waltham, Mass.).
Each PI3K isoform was diluted in enzyme reaction buffer to 2× working stocks. PI3Kα was diluted to 1.6 nM, PI3Kβ was diluted to 0.8 nM, PI3Kγ was diluted to 15 nM, and PI3Kδ was diluted to 1.6 nM. PI(4,5)P2 (Echelon Biosciences, Salt Lake City, Utah) was diluted to 10 μM and ATP was diluted to 20 μM. This 2× stock was used in the assays for PI3Kα and PI3Kβ. For assay of PI3Kγ and PI3Kδ, PI(4,5)P2 was diluted to 10 μM and ATP was diluted to 8 μM to prepare a similar 2× working stock. Alphascreen reaction solutions were made using beads from the anti-GST Alphascreen kit (PerkinElmer, Waltham, Mass.). Two 4× working stocks of the Alphascreen reagents were made in Alphascreen reaction buffer. In one stock, biotinylated-IP4 (Echelon Biosciences, Salt Lake City, Utah) was diluted to 40 nM and streptavadin-donor beads were diluted to 80 μg/mL. In the second stock, PIP3-binding protein (Echelon Biosciences, Salt Lake City, Utah) was diluted to 40 nM and anti-GST-acceptor beads were diluted to 80 μg/mL.
Using a 384-well Multidrop (Titertek, Huntsville, Ala.), 10 μL/well of 2× enzyme stock was added to columns 1-24 of the assay plates for each isoform. 10 μL/well of the appropriate substrate 2× stock (containing 20 μM ATP for the PI3Kα and β assays and containing 8 μM ATP for the PI3Kγ and δ assays) was then added to Columns 1-24 of all plates. Plates were then incubated at room temperature for 20 minutes. In the dark, 10 μL/well of the donor bead solution was added to columns 1-24 of the plates to quench the enzyme reaction. The plates were incubated at room temperature for 30 minutes. Still in the dark, 10 μL/well of the acceptor bead solution was added to columns 1-24 of the plates. The plates were then incubated in the dark for 1.5 hours. The plates were read on an Envision multimode Plate Reader (PerkinElmer, Waltham, Mass.) using a 680 nm excitation filter and a 520-620 nm emission filter.

Chain of p110δ (O00329 whole entry, species assumed): as the sequence (O00329 whole entry) above
Chain of p110δ (P27986 whole entry partner, species assumed): as the sequence (P27986 whole entry partner) above

SMILES	pKi (PI3Kδ)	further results
COC[C@H]1OC(=O)c2coc3c2[C@@]1(C)C1=C(C3=O)[C@@H]2CCC(=O)[C@@]2(C)C[C@H]1OC(C)=O [wortmannin]		pIC50 (Class I PI 3-kinases; wortmannin, read-out: IC50 values against each of the various Class I PI 3-kinases): 8.00 to 9.00; neutrophil migration (neutrophil migration): block; superoxide release (superoxide release): block
Cc1ccccc1-n1c(Cn2cnc3c(N)ncnc32)nc2cccc(C)c2c1=O [IC87114]		inhibits p110δ (p110δ): high nanomolar range (triple digit); activity against any protein kinases tested (protein kinases): no activity; inflammation and disease in a murine model of asthma [1]: significantly ameliorate inflammation and disease
O=C1NC(=O)/C(=C\c2ccc3nccnc3c2)S1 [AS 605240]		efficacy in a mouse model of rheumatoid arthritis [2]: efficacious; onset of disease in a model of systemic lupus erythematosis [3]: delay onset of disease
O=c1cc(N2CCOCC2)oc2c(-c3ccccc3)cccc12 [LY294002]		pIC50 (Class I PI 3-kinases; LY294002, read-out: IC50 values against each of these PI 3-kinases): ~6.00; neutrophil migration (neutrophil migration): block; superoxide release (superoxide release): block
Cc1c(-c2ccccc2S(C)(=O)=O)nc2cc(F)ccc2c1N1CC(C)(C)c2ccc(N3CCOCC3)cc21 [4-(3,3-dimethyl-6-(4-morpholinyl)-2,3-dihydro-1H-indol-1-yl)-7-fluoro-3-methyl-2-(2-(methylsulfonyl)phenyl)quinoline]	8.35	
Cc1c(-c2cc(F)cc(F)c2)nc2cnccc2c1N1CC2(CCOCC2)c2ncc(N3CCOCC3)cc21 [1′-(2-(3,5-difluorophenyl)-3-methyl-1,7-naphthyridin-4-yl)-6′-(4-morpholinyl)-1′,2,2′,3,5,6-hexahydrospiro[pyran-4,3′-pyrrolo[3,2-b]pyridine]]	7.87	
Cc1c(-c2cc(F)cc(F)c2)nc2ncccc2c1N1CC2(CCOCC2)c2ncc(N3CCOCC3)cc21 [1′-(2-(3,5-difluorophenyl)-3-methyl-1,8-naphthyridin-4-yl)-6′-(4-morpholinyl)-1′,2,2′,3,5,6-hexahydrospiro[pyran-4,3′-pyrrolo[3,2-b]pyridine]]	7.55	
Cc1c(-c2cncc(S(C)(=O)=O)c2)nc2cc(F)cc(F)c2c1N1CC(C)(C)c2ncc(N3CCOCC3)cc21 [4-(3,3-dimethyl-6-(4-morpholinyl)-2,3-dihydro-1H-pyrrolo[3,2-b]pyridin-1-yl)-5,7-difluoro-3-methyl-2-(5-(methylsulfonyl)-3-pyridinyl)quinoline]	7.78	
Cc1c(-c2cccc(=O)[nH]2)nc2cc(F)ccc2c1N1CC(C)(C)c2ncc(N3CCOCC3)cc21 [6-(4-(3,3-dimethyl-6-(4-morpholinyl)-2,3-dihydro-1H-pyrrolo[3,2-b]pyridin-1-yl)-7-fluoro-3-methyl-2-quinolinyl)-2(1H)-pyridinone]	7.83	
Cc1c(-c2cccc(C#N)c2)nc2cc(F)ccc2c1N1CC(C)(C)c2ccc(N3CCOCC3)cc21 [3-(4-(3,3-dimethyl-6-(4-morpholinyl)-2,3-dihydro-1H-indol-1-yl)-7-fluoro-3-methyl-2-quinolinyl)benzonitrile]	6.81	
Cc1c(C2CC2)nc2ncccc2c1N1CC(C)(C)c2ncc(N3CCOCC3)cc21 [2-cyclopropyl-4-(3,3-dimethyl-6-(4-morpholinyl)-2,3-dihydro-1H-pyrrolo[3,2-b]pyridin-1-yl)-3-methyl-1,8-naphthyridine]	7.49	
Cc1c(-c2ccccn2)nc2cc(F)ccc2c1N1CC(C)(C)c2ncc(C3=CCOCC3)cc21 [4-(6-(3,6-dihydro-2H-pyran-4-yl)-3,3-dimethyl-2,3-dihydro-1H-pyrrolo[3,2-b]pyridin-1-yl)-7-fluoro-3-methyl-2-(2-pyridinyl)quinoline]	8.19	
Cc1nc2ccc(Cl)cc2c(-n2cc(C#N)c3ccc(-c4cn[nH]c4)cc32)c1C [1-(6-chloro-2,3-dimethyl-4-quinolinyl)-6-(1H-pyrazol-4-yl)-1H-indole-3-carbonitrile]	5.68	
Cc1c(-c2cncc(F)c2)nc2cnccc2c1N1CC(C)(C)c2ncc(N3CCOCC3)cc21 [4-(3,3-dimethyl-6-(4-morpholinyl)-2,3-dihydro-1H-pyrrolo[3,2-b]pyridin-1-yl)-2-(5-fluoro-3-pyridinyl)-3-methyl-1,7-naphthyridine]	8.11	
Cc1c(N2CCN(C(=O)OC(C)(C)C)CC2)nc2cc(F)cc(F)c2c1N1CC2(CCOCC2)c2ncc(N3CCOCC3)cc21 [tert-butyl 4-(5,7-difluoro-3-methyl-4-(6′-(4-morpholinyl)-2,3,5,6-tetrahydrospiro[pyran-4,3′-pyrrolo[3,2-b]pyridin]-1′(2′H)-yl)-2-quinolinyl)-1-piperazinecarboxylate]	7.91	
Cc1c(-c2cc(F)ccc2F)nc2cc(F)ccc2c1N1CC(C)(C)c2ccc(N3CCOCC3)cc21 [2-(2,5-difluorophenyl)-4-(3,3-dimethyl-6-(4-morpholinyl)-2,3-dihydro-1H-indol-1-yl)-7-fluoro-3-methylquinoline]	7.69	
Cc1ccnc(-c2nc3ncccc3c(N3CC(C)(C)c4nc(Cl)c(N5CCOCC5)cc43)c2C)c1 [4-(5-chloro-3,3-dimethyl-6-(4-morpholinyl)-2,3-dihydro-1H-pyrrolo[3,2-b]pyridin-1-yl)-3-methyl-2-(4-methyl-2-pyridinyl)-1,8-naphthyridine]	7.16	
Cc1ccnc(-c2nc3cc(F)cc(F)c3c(N3CC(C)(C)c4ncc(N5CCOCC5)cc43)c2C)c1 [4-(3,3-dimethyl-6-(4-morpholinyl)-2,3-dihydro-1H-pyrrolo[3,2-b]pyridin-1-yl)-5,7-difluoro-3-methyl-2-(4-methyl-2-pyridinyl)quinoline]	7.74	
Cc1c(-c2ccccn2)nc2cc(F)cc(F)c2c1N1CC2(CCOCC2)c2ncc(N3CCOCC3)cc21 [1′-(5,7-difluoro-3-methyl-2-(2-pyridinyl)-4-quinolinyl)-6′-(4-morpholinyl)-1′,2,2′,3,5,6-hexahydrospiro[pyran-4,3′-pyrrolo[3,2-b]pyridine]]	8.03	
Cc1c(-c2ccccn2)nc2cc(F)ccc2c1N1CC2(CS(=O)(=O)C2)c2ccc(N3CCOCC3)cc21 [1-(7-fluoro-3-methyl-2-(2-pyridinyl)-4-quinolinyl)-6-(4-morpholinyl)-1,2-dihydrospiro[indole-3,3′-thietane] 1′,1′-dioxide]	7.09	

Continued, in another order:

pKi (PI3Kδ)	SMILES	further results
7.99	Cc1c(-c2ccccc2S(C)(=O)=O)nc2cc(F)ccc2c1N1CC2(CCOCC2)c2ccc(N3CCOCC3)cc21 [1-(7-fluoro-3-methyl-2-(2-(methylsulfonyl)phenyl)-4-quinolinyl)-6-(4-morpholinyl)-1,2,2′,3′,5′,6′-hexahydrospiro[indole-3,4′-pyran]]	
5.90	Cc1nc2ccc(Cl)cc2c(N2CCOc3ccc(N4CCOCC4)cc32)c1C [4-(6-chloro-2,3-dimethyl-4-quinolinyl)-6-(4-morpholinyl)-3,4-dihydro-2H-1,4-benzoxazine]	
7.74	Cc1c(-c2ccccn2)nc2cc(F)ccc2c1N1CC2(CCOCC2)c2ccc(N3CCOCC3)cc21 [1-(7-fluoro-3-methyl-2-(2-pyridinyl)-4-quinolinyl)-6-(4-morpholinyl)-1,2,2′,3′,5′,6′-hexahydrospiro[indole-3,4′-pyran]]	
7.14	Cc1nc2ccc(Cl)cc2c(N2CC3(CCOCC3)c3ccc(N4CCOCC4)cc32)c1C [1-(6-chloro-2,3-dimethyl-4-quinolinyl)-6-(4-morpholinyl)-1,2,2′,3′,5′,6′-hexahydrospiro[indole-3,4′-pyran]]	
6.44	Cc1nc2ccccc2c(N2CC(C)(C)c3ccc(N4CCOCC4)cc32)c1C [4-(3,3-dimethyl-6-(4-morpholinyl)-2,3-dihydro-1H-indol-1-yl)-2,3-dimethylquinoline]	
7.92	Cc1cc(C)cc(-c2nc3cc(F)ccc3c(N3CC4(CCOCC4)c4ncc(N5CCOCC5)cc43)c2C)c1 [1′-(2-(3,5-dimethylphenyl)-7-fluoro-3-methyl-4-quinolinyl)-6′-(4-morpholinyl)-1′,2,2′,3,5,6-hexahydrospiro[pyran-4,3′-pyrrolo[3,2-b]pyridine]]	
5.40	COc1cc(OC)c2nc(C)c(C)c(N3CC(C)(C)c4ccc(N5CCOCC5)cc43)c2c1 [4-(3,3-dimethyl-6-(4-morpholinyl)-2,3-dihydro-1H-indol-1-yl)-6,8-dimethoxy-2,3-dimethylquinoline]	
7.88	Cc1c(-c2ccccn2)nc2cc(F)ccc2c1N1CC2(CCOCC2)c2nc(Cl)c(N3CCOCC3)cc21 [5′-chloro-1′-(7-fluoro-3-methyl-2-(2-pyridinyl)-4-quinolinyl)-6′-(4-morpholinyl)-1′,2,2′,3,5,6-hexahydrospiro[pyran-4,3′-pyrrolo[3,2-b]pyridine]]	
7.16	COc1cccc(-c2nc3cc(F)ccc3c(N3CC4(CCOCC4)c4ccc(N5CCOCC5)cc43)c2C)n1 [1-(7-fluoro-2-(6-methoxy-2-pyridinyl)-3-methyl-4-quinolinyl)-6-(4-morpholinyl)-1,2,2′,3′,5′,6′-hexahydrospiro[indole-3,4′-pyran]]	
7.32	Cc1c(-c2cccnc2)nc2cc(F)ccc2c1N1CC2(CCOCC2)c2ccc(N3CCOCC3)cc21 [1-(7-fluoro-3-methyl-2-(3-pyridinyl)-4-quinolinyl)-6-(4-morpholinyl)-1,2,2′,3′,5′,6′-hexahydrospiro[indole-3,4′-pyran]]	
5.58	CC1(C)CN(c2c3c(nc4ccc(Cl)cc24)CCCC3)c2cc(N3CCOCC3)ccc21 [7-chloro-9-(3,3-dimethyl-6-(4-morpholinyl)-2,3-dihydro-1H-indol-1-yl)-1,2,3,4-tetrahydroacridine]	
6.81	Cc1c(-c2cccc(O)n2)nc2cc(F)ccc2c1N1CC2(CCOCC2)c2ccc(N3CCOCC3)cc21 [6-(7-fluoro-3-methyl-4-(6-(4-morpholinyl)-2′,3′,5′,6′-tetrahydrospiro[indole-3,4′-pyran]-1(2H)-yl)-2-quinolinyl)-2-pyridinol]	
6.92	Cc1nc2c(C)cccc2c(N2CC3(CCOCC3)c3ccc(N4CCOCC4)cc32)c1C [6-(4-morpholinyl)-1-(2,3,8-trimethyl-4-quinolinyl)-1,2,2′,3′,5′,6′-hexahydrospiro[indole-3,4′-pyran]]	
